From EP2826473A1, “NOVEL USE OF PATCHOULOL” (Chengdu Huasun Group Inc., Ltd., priority 2012, dated 2013)
Converted amounts (≈) assume the structure as drawn.

Experiments:
[1] = system: Staphylococcus aureus MSSA; assay: in vitro bacteriostatic activity, agar dilution MIC; assay type: cell-based
[2] = system: Staphylococcus epidermidis MSSE; assay: as above; assay type: cell-based; details: Staphylococcus epidermidis
[3] = system: Enterococcus faecalis; assay: as above; assay type: cell-based; details: Enterococcus faecalis
[4] = system: Enterococcus faecium; assay: as above; assay type: cell-based; details: Enterococcus faecium
[5] = system: Staphylococcus aureus MRSA; assay: as above; assay type: cell-based
[6] = system: Staphylococcus epidermidis MRSE; assay: as above; assay type: cell-based
[7] = system: Staphylococcus epidermidis ATCC 12228; assay: in vitro bacteriostatic activity, agar dilution MIC, quality control strain; assay type: cell-based; details: Staphylococcus epidermidis, ATCC12228
[8] = system: Staphylococcus aureus; assay: in vitro bacteriostatic activity, agar dilution MIC, quality control strains; assay type: cell-based; details: Staphylococcus aureus, ATCC29213
[9] = system: Methicillin-resistant Staphylococcus aureus ATCC 43300; assay: in vivo protection of model mice infected with methicillin-resistant Staphylococcus aureus; parameters: species or system KM mice; details: 4×10^5 units/kg, intraperitoneal injection once a day, within 14 days
Procedure: Tested strains' virulence assay: Methicillin-resistant Staphylococcus aureus was cultured in incubator at 37°C to reach exponential phase of growth, and then diluted with normal saline to obtain different gradient concentrations of bacterial liquid. Different concentrations of bacterial liquid were taken and mixed with equivalent 10% gastric mucin. Bacterial liquid was administrated to mice at 0.5 ml/20 g by intraperitoneal injection, and 5% gastric mucin was used as control. Under a premise of no control mice death, the death rate of mice within 14 days was recorded, and the minimum bacterial volumes leading to death of whole mice were measured, i.e. the minimum lethal dose (MLD) of bacterial liquid.
Pretesting of effective dose in vivo: Infection model mice infected by Methicillin-resistant Staphylococcus aureus were randomly divided into a few of groups (four mice per group), and a graded dose of each bacterial liquid was separately administrated to mice in each test group at one time per day. Moreover, administration of test drug was done one day ahead of schedule, and toxic substances were not eliminated until 0.5 h after administration on the second day. The death status of mice within 14 days was observed, to determine the dosage used in the formal experiment.
KM mice (grade SPF), half male and half female, weighing 18-22 g were randomly divided into […] groups with ten mice for each group, i.e. the group receiving vancomycin hydrochloride for injection; the groups receiving high, medium, and low doses of patchoulol; blank group; model group; and control group receiving gastric mucin. All of the mice were administrated by intraperitoneal injection once a day. The mice were administrated one day in advance and then attacked after 0.5h of administration on the second day, i.e. intraperitoneally injected with methicillin-resistant Staphylococcus aureus liquid containing 5% gastric mucin. Amongst, mice in the model group were given normal saline instead of test drug; mice in the blank group were not given drugs and attacked; mice in the gastric mucin control group were not given test drug, but only injected with 5% gastric mucin without bacteria.
The death status of mice within 14 days after injection of bacteria was observed, and its survival rate was recorded.

Compound: CN[C@H](CC(C)C)C(=O)N[C@H]1C(=O)N[C@@H](CC(N)=O)C(=O)N[C@H]2C(=O)N[C@H]3C(=O)N[C@H](C(=O)N[C@H](C(=O)O)c4cc(O)cc(O)c4-c4cc3ccc4O)[C@H](O)c3ccc(c(Cl)c3)Oc3cc2cc(c3O[C@@H]2O[C@H](CO)[C@@H](O)[C@H](O)[C@H]2O[C@H]2C[C@](C)(N)[C@H](O)[C@H](C)O2)Oc2ccc(cc2Cl)[C@H]1O [vancomycin]
- MIC ([1]; Staphylococcus aureus MSSA 12-11): 1 µg/mL (≈ 0.69 µM)
- MIC ([1]; Staphylococcus aureus MSSA 12-13): 1 µg/mL (≈ 0.69 µM)
- MIC ([1]; Staphylococcus aureus MSSA 12-14): 1 µg/mL (≈ 0.69 µM)
- MIC ([1]; Staphylococcus aureus MSSA 12-15): 1 µg/mL (≈ 0.69 µM)
- MIC ([1]; Staphylococcus aureus MSSA 12-16): 1 µg/mL (≈ 0.69 µM)
- MIC ([1]; Staphylococcus aureus MSSA 12-17): 1 µg/mL (≈ 0.69 µM)
- MIC ([1]; Staphylococcus aureus MSSA 12-18): 1 µg/mL (≈ 0.69 µM)
- MIC ([1]; Staphylococcus aureus MSSA 12-19): 1 µg/mL (≈ 0.69 µM)
- MIC ([1]; Staphylococcus aureus MSSA 12-21): 1 µg/mL (≈ 0.69 µM)
- MIC ([1]; Staphylococcus aureus, MSSA): 1 µg/mL (≈ 0.69 µM)
- MIC ([2]; Staphylococcus epidermidis MSSE 12-11): 1 µg/mL (≈ 0.69 µM)
- MIC ([2]; Staphylococcus epidermidis MSSE 12-12): 2 µg/mL (≈ 1.38 µM)
- MIC ([2]; Staphylococcus epidermidis MSSE 12-13): 1 µg/mL (≈ 0.69 µM)
- MIC ([2]; Staphylococcus epidermidis MSSE 12-14): 2 µg/mL (≈ 1.38 µM)
- MIC ([2]; Staphylococcus epidermidis MSSE 12-15): 2 µg/mL (≈ 1.38 µM)
- MIC ([2]; Staphylococcus epidermidis MSSE 12-16): 0.5 µg/mL (≈ 0.345 µM)
- MIC ([2]; Staphylococcus epidermidis MSSE 12-17): 0.5 µg/mL (≈ 0.345 µM)
- MIC ([2]; Staphylococcus epidermidis MSSE 12-18): 0.25 µg/mL (≈ 0.173 µM)
- MIC ([2]; Staphylococcus epidermidis MSSE 12-19): 1 µg/mL (≈ 0.69 µM)
- MIC ([2]; Staphylococcus epidermidis MSSE 12-20): 1 µg/mL (≈ 0.69 µM)
- MIC ([3]; ATCC29212, Enterococcus faecalis ATCC 29212): 2 µg/mL (≈ 1.38 µM)
- MIC ([3]; ATCC51299, Enterococcus faecalis (high endurance) ATCC 51299): 2 µg/mL (≈ 1.38 µM)
- MIC ([3]; Enterococcus faecalis 12-11): > 128 µg/mL
- MIC ([3]; Enterococcus faecalis 12-12): 1 µg/mL (≈ 0.69 µM)
- MIC ([3]; Enterococcus faecalis 12-13): 2 µg/mL (≈ 1.38 µM)
- MIC ([3]; Enterococcus faecalis 12-14): 1 µg/mL (≈ 0.69 µM)
- MIC ([3]; Enterococcus faecalis 12-17): 2 µg/mL (≈ 1.38 µM)
- MIC ([3]; Enterococcus faecalis 12-18): 1 µg/mL (≈ 0.69 µM)
- MIC ([3]; Enterococcus faecalis 12-19): 2 µg/mL (≈ 1.38 µM)
- MIC ([3]; Enterococcus faecalis 12-20): 2 µg/mL (≈ 1.38 µM)
- MIC ([3]; Enterococcus faecalis 12-21): 1 µg/mL (≈ 0.69 µM)
- MIC ([3]; Enterococcus faecalis 12-22): 1 µg/mL (≈ 0.69 µM)
- MIC ([4]; ATCC33186, Enterococcus faecium ATCC 33186): 1 µg/mL (≈ 0.69 µM)
- MIC ([4]; Enterococcus faecium 12-7): 0.5 µg/mL (≈ 0.345 µM)
- MIC ([4]; Enterococcus faecium 12-8): 0.5 µg/mL (≈ 0.345 µM)
- MIC ([4]; Enterococcus faecium 12-9): 1 µg/mL (≈ 0.69 µM)
- MIC ([4]; Enterococcus faecium 12-10): 4 µg/mL (≈ 2.76 µM)
- MIC ([4]; Enterococcus faecium 12-11): 0.5 µg/mL (≈ 0.345 µM)
- MIC ([4]; Enterococcus faecium 12-12): 1 µg/mL (≈ 0.69 µM)
- MIC ([4]; Enterococcus faecium 12-13): 4 µg/mL (≈ 2.76 µM)
- MIC ([4]; Enterococcus faecium 12-14): 0.5 µg/mL (≈ 0.345 µM)
- MIC ([4]; Enterococcus faecium 12-15): 1 µg/mL (≈ 0.69 µM)
- MIC ([4]; Enterococcus faecium 12-16): 1 µg/mL (≈ 0.69 µM)
- MIC ([5]; ATCC 43300 / MRSA, Methicillin-resistant Staphylococcus aureus ATCC 43300): 1 µg/mL (≈ 0.69 µM)
- MIC ([5]; MRSA, Staphylococcus aureus MRSA 12-11): 2 µg/mL (≈ 1.38 µM)
- MIC ([5]; MRSA, Staphylococcus aureus MRSA 12-12): 1 µg/mL (≈ 0.69 µM)
- MIC ([5]; MRSA, Staphylococcus aureus MRSA 12-13): 1 µg/mL (≈ 0.69 µM)
- MIC ([5]; MRSA, Staphylococcus aureus MRSA 12-14): 1 µg/mL (≈ 0.69 µM)
- MIC ([5]; MRSA, Staphylococcus aureus MRSA 12-15): 1 µg/mL (≈ 0.69 µM)
- MIC ([5]; MRSA, Staphylococcus aureus MRSA 12-16): 2 µg/mL (≈ 1.38 µM)
- MIC ([5]; MRSA, Staphylococcus aureus MRSA 12-17): 1 µg/mL (≈ 0.69 µM)
- MIC ([5]; MRSA, Staphylococcus aureus MRSA 12-18): 1 µg/mL (≈ 0.69 µM)
- MIC ([5]; MRSA, Staphylococcus aureus MRSA 12-19): 2 µg/mL (≈ 1.38 µM)
- MIC ([5]; MRSA, Staphylococcus aureus MRSA 12-20): 1 µg/mL (≈ 0.69 µM)
- MIC ([6]; Staphylococcus epidermidis MRSE 12-11): 8 µg/mL (≈ 5.52 µM)
- MIC ([6]; Staphylococcus epidermidis MRSE 12-12): 0.5 µg/mL (≈ 0.345 µM)
- MIC ([6]; Staphylococcus epidermidis MRSE 12-15): 2 µg/mL (≈ 1.38 µM)
- MIC ([6]; Staphylococcus epidermidis MRSE 12-16): 2 µg/mL (≈ 1.38 µM)
- MIC ([6]; Staphylococcus epidermidis MRSE 12-17): 2 µg/mL (≈ 1.38 µM)
- MIC ([6]; Staphylococcus epidermidis MRSE 12-18): 2 µg/mL (≈ 1.38 µM)
- MIC ([6]; Staphylococcus epidermidis MRSE 12-19): 2 µg/mL (≈ 1.38 µM)
- MIC ([6]; Staphylococcus epidermidis MRSE 12-20): 2 µg/mL (≈ 1.38 µM)
- MIC ([6]; Staphylococcus epidermidis MRSE 12-21): 2 µg/mL (≈ 1.38 µM)
- MIC ([6]; Staphylococcus epidermidis MRSE 12-22): 1 µg/mL (≈ 0.69 µM)
- MIC [7]: 1 µg/mL (≈ 0.69 µM)
- MIC [8]: 0.5 µg/mL (≈ 0.345 µM)
- Survival number ([9]; 10 animals): 10
- Survial rate (%) [9]: 100%
